In PubChem BioAssay (NCI):
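Protocol summary: plate cells (96-well), add compound at 5 concentrations, incubate 48 h, interpolate endpoints linearly. GI50: concentration for 50% inhibition of growth. TGI: total growth inhibition.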

Assays:
Test in all cases: DTP human tumour cell line panel, 48 h
[1] = tested on: BT-549 breast
[2] = tested on: HCC-2998 colon
[3] = tested on: MALME-3M melanoma
[4] = tested on: MDA-MB-231 breast
[5] = tested on: RXF 393 renal
[6] = tested on: SK-MEL-5 melanoma
[7] = tested on: RPMI-8226 leukemia
[8] = tested on: SR leukemia

SMILES	GI50 [1]	TGI [1]	GI50 [2]	TGI [2]	GI50 [3]	TGI [3]	GI50 [4]	TGI [4]	GI50 [5]	TGI [5]	GI50 [6]	TGI [6]	GI50 [7]	TGI [7]	GI50 [8]	TGI [8]
N#CC(C#N)=Cc1ccc(-c2ccc(-c3nc4ccccc4s3)cc2)o1	32.9 µM	96.1 µM	18.9 µM	45.1 µM	22.2 µM	> 100 µM	19.8 µM	37.8 µM	42.4 µM	> 100 µM	6.01 µM	76.2 µM				
CCc1c(C)[nH]c(/C=C2\N=C(c3ccc[nH]3)C=C2OC)c1C	0.129 µM	3.87 µM	0.451 µM	4.65 µM	0.474 µM	2.05 µM	0.128 µM	3.16 µM	0.473 µM	4.11 µM	0.159 µM	0.545 µM	0.0239 µM	1.05 µM		
CN(C)c1ccc2nc3ccc(=[N+](C)C)cc-3oc2c1	11.2 µM	74.2 µM	3.56 µM	> 100 µM	1.67 µM	4.13 µM			10.6 µM	50.4 µM	0.47 µM	1.65 µM	0.684 µM	21 µM	2.06 µM	23.8 µM
CC1(C)CCC2(C(=O)OC3OC(CO)C(O)C(O)C3O)CC[C@]3(C)C(=CCC4C5(C)CC[C@H](OC6OC(C(=O)O)C(O)C(O)C6O)C(C)(C)C5CCC43C)C2C1 (some centres not stated)	1.7 µM	25.8 µM	0.89 µM	1.64 µM			1.15 µM	2.76 µM	1.65 µM	> 50 µM	0.929 µM	1.78 µM	0.776 µM	10.2 µM		
Nc1ncnc2sc(=S)c3c(c12)CCC3	22.5 µM	68.2 µM	35 µM	> 100 µM	66.4 µM	> 100 µM	30.4 µM	> 100 µM	26.9 µM	55.1 µM	4.81 µM	29.8 µM	16.8 µM	55.3 µM		
COc1cc2cc(Oc3ccc(NC(=O)Nc4ccc(Cl)c(C(F)(F)F)c4)cc3)c(C)nc2cc1OCCN1CCCCC1	1.79 µM	3.45 µM	1.85 µM	3.46 µM	1.62 µM	3.13 µM	1.39 µM	2.75 µM			1.65 µM	3.04 µM			0.486 µM	2.37 µM
CC12CCC(=O)C(O1)C1C(=O)c3cc4ccccc4cc3C(=O)C12 (configuration not stated)	23.7 µM	58.6 µM			12.9 µM	29.5 µM	14.9 µM	35.6 µM	2.5 µM	14.6 µM						
CSc1nnc(CCSc2ccnc3c(C(F)(F)F)cccc23)o1	31.4 µM	> 100 µM	64.8 µM	> 100 µM	> 100 µM	> 100 µM	> 100 µM	> 100 µM	65.3 µM	> 100 µM	46.1 µM	> 100 µM	33.5 µM	> 100 µM		
COc1cc2nc(Cl)nc(Nc3cccc(C(=O)/C=C/c4ccccc4)c3)c2cc1OC	2.36 µM	7.83 µM	2.54 µM	5.56 µM			6.4 µM	> 92.4 µM	2.02 µM	5.46 µM	> 22.8 µM	> 100 µM	0.622 µM	3.48 µM		
O=C1C(Cl)=C(N/N=c2/[nH][nH]/c(=N/NC3=C(Cl)C(=O)c4ccccc4C3=O)c3ccccc23)C(=O)c2ccccc21	13.5 µM	26.8 µM					12 µM	28.2 µM			14.1 µM	29.3 µM	10.1 µM	44.1 µM	9.97 µM	59.1 µM
CCN1C(=O)N(CC)C2C1NN=c1s/c(=C3\C(=O)N(C(C)C)c4ccccc43)c(=O)n12 (configuration not stated)	1.38 µM	66.4 µM	0.357 µM	> 20.8 µM	1.18 µM	> 100 µM	0.434 µM	15.4 µM			0.394 µM	2.33 µM	0.429 µM	> 100 µM	0.426 µM	> 100 µM
CC(=O)/C(=C\c1ccco1)C(=O)Nc1ccccc1				> 100 µM		> 100 µM				> 100 µM		> 100 µM		> 100 µM		> 100 µM
COc1cccc(OC(=O)c2ccccc2Nc2ccnc(C(F)(F)F)c2)c1	8.11 µM	55 µM					2.12 µM	16.9 µM	20.7 µM	59.6 µM	2.23 µM		1.01 µM	3.86 µM		
Cc1ccc2[nH]c(C(=O)NN3C(=O)CSC34CCCCC4C)c(-c3ccccc3)c2c1 (configuration not stated)	20 µM	36.7 µM	16.4 µM	31.6 µM	17.3 µM	35.6 µM	17 µM	34.5 µM			15.1 µM	31.3 µM	13.8 µM	35.2 µM		
COc1ccc2c(c1)CCC1C2CCC2(C)C1CCC2(O)CNC(=O)CCCCC1CCSS1 (configuration not stated)	19.3 µM	98.4 µM	2.13 µM	5.52 µM	> 100 µM	> 100 µM	2.8 µM	8.3 µM	11.7 µM	44 µM	7.15 µM	> 100 µM	2.43 µM	9.48 µM		
